Reference: patent US7084166B2, “Bis-heterocyclic compounds with antitumour and chemosensitising activity” (Sigma-Tau Industrie Farmaceutichee Riunite S.p.A., priority 2000, dated 2006)
Values joined by “and” are separate entries in the source; they are usually repeats but may differ in a detail not shown here. Identical values can stand only once. Like-named read-outs stand apart in the source and are kept apart here.

Assays:
Format in all cases: cell-based
[1] = tested on: LoVo (human colon adenocarcinoma); experiment: Cytotoxicity test on sensitive tumour cell lines (sulforodamine B test); details: 24 h incubation, survival after 48 h, ± S.D., read-out: antiproliferative activity IC50, Lovo
Protocol: (§1) This test was used to evaluate the survival of the human cell lines MCF-7 (human mammary carcinoma), LoVo (human colon adenocarcinoma), and MES-SA (human uterine sarcoma). The tumour cells were incubated with the compound, at scalar concentrations, (500 μM÷0.97 μM) for 24 hours; the compound was then removed and cell survival was evaluated after 48 hours using the sulforodamine B test (J. Natl. Cancer Inst. 82, 1107–1112). The antiproliferative activity of the compounds was evaluated in terms of the IC50 (concentration of the molecule that inhibits 50% of cell survival) processed with a curve-fitting program (Am. J. Physiol. 1978., 235, E97–E102) and expressed as μM±S.D.

[2] = tested on: MCF-7 (human mammary carcinoma); experiment: as above; details: 24 h incubation, survival after 48 h, ± S.D., read-out: antiproliferative activity IC50, MCF-7
Protocol: as §1

[3] = tested on: MES-SA (human uterine sarcoma); experiment: as above; details: 24 h incubation, survival after 48 h, ± S.D., read-out: antiproliferative activity IC50, Mes-Sa
Protocol: as §1

[4] = tested on: NB4 cells (acute promyelocytic leukaemia); experiment: Flow cytofluorimetric analysis of cell cycle; parameters: APOPTOSIS: unit not given here; details: ATRA 0.01 μM alone, day 3
Protocol: The first line used was the NB4 cell line, bearing the t(15;17) chromosomal translocation which generates the fusion protein PML/RARα.
(§2) To assess the effect of the tested compounds on the various phases of the cell cycle, on the third day of treatment 500,000 cells were harvested, centrifuged at 1,000 rpm for 10 minutes, washed twice in PBS w/o (PBS without calcium and magnesium) and fixed in a solution of 50% PBS w/o+50% methanol/acetone (1:4 v/v) for at least 1 hour; the cells were then centrifuged as described, washed in PBS w/o and centrifuged again.
(§3) 200 μl of propidium iodide 100 μg/ml and 200 μl of RNase 150 kU/mg were then added to the cell pellet.
(§4) After a 30-min incubation in the dark at room temperature, the samples were analysed by flow cytofluirometry.

[5] = tested on: HL60 cells (acute promyelocytic leukaemia); experiment: Flow cytofluorimetric analysis of cell cycle; details: ATRA 0.5 μM alone, day 3
Protocol: The second line used was the HL60 cell line which responds to ATRA (but is less sensitive than the NB4 cell line).
The HL60 and NB4 cells were seeded at a density of 150,000 cells/ml in RPMI 1640 medium containing 10% foetal calf serum, and were treated with the tested compounds in the presence and absence of suboptimal doses of ATRA (5–10 nM for NB4 and 0.5 μM for HL60, respectively) in the dark, and returned to the incubator for 3 days without ever replacing the culture medium.
as §2, §3, §4

[6] = tested on: LoVo-Dx (human colon adenocarcinoma); experiment: Cytotoxicity test on resistant tumour cell lines, tested compound alone; details: 24 h incubation, survival after 48 h, ± SD
Protocol: (§5) This test was used to evaluate the survival of human cell lines resistant to doxorubicin (about 100 times) and cross-resistant to daunorubicin, actinomycin D, mitoxantrone, vincristine, vinblastin, taxol, colchicine, and etoposide.
(§6) The following cell lines were used: MCF-7-Dx (human mammary carcinoma), LoVo-Dx (human colon adenocarcinoma), MES-SA Dx (human uterine sarcoma).
(§7) Before using the association doxorubicin-tested compound, the cytotoxicity of the cells was evaluated with the tested compound (alone) as follows: the cells were incubated with the compound, at scalar concentrations (500 μM÷0.97 μM), for 24 hours; the compound was then removed and cell survival was evaluated after 48 hours with the above-mentioned sulforodamine B test. The antiproliferative activity of the compounds was evaluated in terms of IC50 (concentration of the compound that inhibits 50% of cell survival) processed with the above-mentioned curve-fitting program.

[7] = tested on: MCF-7-Dx (human mammary carcinoma); experiment: as above; details: 24 h incubation, survival after 48 h, ± SD
Protocol: as §5, §6, §7

[8] = tested on: MES-SA Dx (human uterine sarcoma); experiment: as above; details: 24 h incubation, survival after 48 h, ± SD
Protocol: as §5, §6, §7

Compound	IC50 [1] [µM]	IC50 [2] [µM]	IC50 [6] [µM]	IC50 [7] [µM]	IC50 ([1]; Homo sapiens, LoVo) [µM]	IC50 ([2]; Homo sapiens, MCF7) [µM]	IC50 ([6]; Homo sapiens, LoVo/DX) [µM]	IC50 ([8]; Homo sapiens, MES-SA Dx) [µM]	also measured
FCCCC[C@@H](c1cc2ccccc2[nH]1)c1c[nH]c2ccccc12 (racemic) [ST 1421, (R,S)-5-fluoro-1,1-(indol-2-ylindol-3-yl)-pentane]	20.7 ± 0.7	20.4 ± 2.8							
CCCC(c1cc2ccccc2[nH]1)c1c[nH]c2ccccc12 (racemic) [ST 1625, (R,S)-1,1-(indol-2-yl, indol-3-yl) butane]	17.1 ± 3.8	13.4 ± 1							IC50 [3]: 14.1 ± 3.8 µM
OCCCC(c1cc2cc3c(cc2[nH]1)OCO3)c1c[nH]c2cc3c(cc12)OCO3 (racemic) [ST 1731, (R,S)-4-hydroxy-1,1-di-(5,6-methylenedioxy-indol-2-yl, 5,6-methylenedioxy-indol-3-Yl)-butane]	23.9 ± 0.7	30.1 ± 4							
CC1=C(/C=C/C(C)=C/C=C/C(C)=C/C(=O)O)C(C)(C)CCC1 [ATRA, all-trans retinoic acid, reference compound]									APOPTOSIS [4]: 10 and 17.5 and 12.5; G0/G1 [4]: 54.6 and 65.0 and 55.8; G2/M [4]: 14.4 and 11.0 and 17.3; S [4]: 31.0 and 24.0 and 26.9; G0/G1 [5]: 63.3 and 63.4; G2/M [5]: 11.0; S [5]: 25.7 and 25.6
CC1(C)OCC(C(O)C2OC(C)(C)OC2C(c2c[nH]c3ccccc23)c2c[nH]c3ccccc23)O1 [ST 1339, 2,3-5,6-di-O-isopropylidene-1,1-di-indol-3-yl-1-deoxy-D-mannitol]			11 ± 0.6	98.2 ± 12					IC50 [8]: 56.1 ± 11 µM
OC[C@@H](O)[C@@H](O)[C@H](O)[C@@H](O)C(c1c[nH]c2ccccc12)c1c[nH]c2ccccc12 [ST 1350, 1,1-di-indol-3-yl-1-deoxy-D-glucose]			> 500	70.8 ± 3.7					IC50 [8]: 81.4 ± 8 µM
CC1(C)O[C@@H]([C@H](O)[C@H]2COC(C)(C)O2)[C@@H](C(c2c[nH]c3ncccc23)c2c[nH]c3ncccc23)O1 [ST 1353, 2,3-5,6-di-O-isopropylidene-1,1-di-7-azaindol-3-yl-1-deoxy-D-mannitol]			367 ± 82	> 500					
CC(=O)OC[C@@H](OC(C)=O)[C@@H](OC(C)=O)[C@H](OC(C)=O)[C@@H](OC(C)=O)C(c1c[nH]c2ccccc12)c1c[nH]c2ccccc12 [ST 1363, 1,1-di-indol-3-yl-1-deoxy-pentaacetyl-D-glucose]	31.3 ± 1.6	25 ± 2.8	121 ± 12	65.4 ± 0.7					IC50 [3]: 33.6 ± 5.9 µM
CC(=O)OCCCCC(c1c[nH]c2ccccc12)c1c[nH]c2ccccc12 [ST 1371, 5-acetoxy-1,1-diindol-3-yl-pentane]					33 ± 3	27.7 ± 4.2	47.9 ± 4.7	53 ± 0.4	IC50 ([7]; Homo sapiens, MCF7/DX): 74.1 ± 2.5 µM
FCCCCC(c1c[nH]c2ccccc12)c1c[nH]c2ccccc12 [ST 1382, 1,1-(diindol-3-yl)-5-fluoro-pentane]	33.5 ± 3.7	28.5 ± 6	34.3 ± 6.9	40.2 ± 3					IC50 [3]: 40.2 ± 4.1 µM; IC50 [8]: 12.5 ± 0.3 µM
CCCC(c1c[nH]c2ccccc12)c1c[nH]c2ccccc12 [ST 1385, 1,1-di-indol-3-yl-butane]					26.4 ± 0.4	27 ± 3.2	17.6 ± 0.9	33.6 ± 2.9	IC50 ([3]; Homo sapiens, MES-SA): 19.5 ± 4 µM; IC50 ([7]; Homo sapiens, MCF7/DX): 34.6 ± 2 µM
CCCC(c1c[nH]c2ccc(O)cc12)c1c[nH]c2ccc(O)cc12 [ST 1393, 1,1-di-(5-hydroxyindol-3-yl)-butane]					3 ± 0.5	5.9 ± 0.8	2.7 ± 0.4	7.5 ± 0.3	IC50 ([3]; Homo sapiens, MES-SA): 5.7 ± 0.1 µM; IC50 ([7]; Homo sapiens, MCF7/DX): 9.2 ± 0.4 µM
CCCC(c1c[nH]c2ccc([N+](=O)[O-])cc12)c1c[nH]c2ccc([N+](=O)[O-])cc12 [ST 1429, 1,1-di-(5 nitroindol-3-yl)-butane]					23.6 ± 0.5	10.4 ± 0.3	10.2 ± 0.5	15.3 ± 0.4	IC50 ([3]; Homo sapiens, MES-SA): 15 ± 2.5 µM; IC50 ([7]; Homo sapiens, MCF7/DX): 12.9 ± 0.7 µM
CCOC(=O)c1ccc(C(c2ccccc2)c2ccc(C(=O)OCC)[nH]2)[nH]1 [ST 1431, di-(5-ethoxycarbonyl-pyrrol-2-yl)-phenyl-methane]					35.6 ± 0.5	20.3 ± 1.4			
CCCC(c1c[nH]c2ccc(N)cc12)c1c[nH]c2ccc(N)cc12 [ST 1437, 1,1-di-(5-amino-indol-3-yl)-butane. 2HCl]	16.7 ± 3.4	8.3 ± 1.2	8 ± 0.6						IC50 [3]: 4.4 ± 0.06 µM; IC50 [8]: 12.2 ± 0.8 µM
CCCC(c1c[nH]c2ccc(F)cc12)c1c[nH]c2ccc(F)cc12 [ST 1438, 1,1-di-(5-fluoroindol-3-yl)-butane]					20 ± 0.8	28.1 ± 0.9	25.9 ± 3.1	35.6 ± 1.7	IC50 ([3]; Homo sapiens, MES-SA): 21.8 ± 4.4 µM; IC50 ([7]; Homo sapiens, MCF7/DX): 41.8 ± 5.3 µM
OC(c1ccccc1)(c1nccn1Cc1ccccc1)c1nccn1Cc1ccccc1 [ST 1440, phenyl, hydroxy, di-(N,N-dibenzyl-imidazol-2-yl) methane]	11.7 ± 0.2	17 ± 2.9	4.6 ± 0.6	29.7 ± 2.6					IC50 [3]: 4.7 ± 0.4 µM; IC50 [8]: 14.9 ± 2.5 µM
O=C(c1cn(Cc2ccccc2)c2ccccc12)c1cn(Cc2ccccc2)c2ccccc12 [ST 1473, di-(N-benzyl-indol-3-yl)-oxomethane]							8.6 ± 2.9	> 500	IC50 ([7]; Homo sapiens, MCF7/DX): > 500 µM
CCCC(c1c[nH]c2ccc(NC(C)=O)cc12)c1c[nH]c2ccc(NC(C)=O)cc12 [ST 1477, 1,1-di-(5-acetamido-indol-3-yl)-butane]					59.4 ± 6.9	33.1 ± 2.9			IC50 ([3]; Homo sapiens, MES-SA): 28.7 ± 0.2 µM
CCC=C(c1cn(Cc2ccccc2)c2ccccc12)c1cn(Cc2ccccc2)c2ccccc12 [ST 1492, 1,1-di-(N-benzyl-indol-3-yl)-1-butene]							> 350	178 ± 41	
CCCc1c(C(=O)c2cn(Cc3ccccc3)c3ccccc23)c2ccccc2n1Cc1ccccc1 [ST 1494, (N-benzyl-indol-3-yl, N-benzyl-2-propyl indol-3-yl)-oxomethane]			> 200	> 200					IC50 [8]: > 200 µM
OCCCC(c1c[nH]c2cc3c(cc12)OCO3)c1c[nH]c2cc3c(cc12)OCO3 [ST 1730, 4-hydroxy-1,1-di-(5,6-methylenedioxy-indol-3-yl)-butane]					9.3 ± 0.9	24.5 ± 3.7			
